In brackets after ≈: the same amount, converted by molar mass. Like-named read-outs stand apart in the source and are kept apart here.
Legend:
[1] = molecular target: T1, chicken liver FAS (Gallus gallus, UniProt P12276); assay: FAS overall reaction, fast-binding inhibition (NADPH decrease at 340 nm); format: biochemical
T1 construct: The purification, storage, and application of the chicken liver FAS were conducted following established procedures; from tissue; host or cells: chicken liver (chickens from Huadu Broiler Corporation, Beijing)
T1 sequence (P12276 whole entry): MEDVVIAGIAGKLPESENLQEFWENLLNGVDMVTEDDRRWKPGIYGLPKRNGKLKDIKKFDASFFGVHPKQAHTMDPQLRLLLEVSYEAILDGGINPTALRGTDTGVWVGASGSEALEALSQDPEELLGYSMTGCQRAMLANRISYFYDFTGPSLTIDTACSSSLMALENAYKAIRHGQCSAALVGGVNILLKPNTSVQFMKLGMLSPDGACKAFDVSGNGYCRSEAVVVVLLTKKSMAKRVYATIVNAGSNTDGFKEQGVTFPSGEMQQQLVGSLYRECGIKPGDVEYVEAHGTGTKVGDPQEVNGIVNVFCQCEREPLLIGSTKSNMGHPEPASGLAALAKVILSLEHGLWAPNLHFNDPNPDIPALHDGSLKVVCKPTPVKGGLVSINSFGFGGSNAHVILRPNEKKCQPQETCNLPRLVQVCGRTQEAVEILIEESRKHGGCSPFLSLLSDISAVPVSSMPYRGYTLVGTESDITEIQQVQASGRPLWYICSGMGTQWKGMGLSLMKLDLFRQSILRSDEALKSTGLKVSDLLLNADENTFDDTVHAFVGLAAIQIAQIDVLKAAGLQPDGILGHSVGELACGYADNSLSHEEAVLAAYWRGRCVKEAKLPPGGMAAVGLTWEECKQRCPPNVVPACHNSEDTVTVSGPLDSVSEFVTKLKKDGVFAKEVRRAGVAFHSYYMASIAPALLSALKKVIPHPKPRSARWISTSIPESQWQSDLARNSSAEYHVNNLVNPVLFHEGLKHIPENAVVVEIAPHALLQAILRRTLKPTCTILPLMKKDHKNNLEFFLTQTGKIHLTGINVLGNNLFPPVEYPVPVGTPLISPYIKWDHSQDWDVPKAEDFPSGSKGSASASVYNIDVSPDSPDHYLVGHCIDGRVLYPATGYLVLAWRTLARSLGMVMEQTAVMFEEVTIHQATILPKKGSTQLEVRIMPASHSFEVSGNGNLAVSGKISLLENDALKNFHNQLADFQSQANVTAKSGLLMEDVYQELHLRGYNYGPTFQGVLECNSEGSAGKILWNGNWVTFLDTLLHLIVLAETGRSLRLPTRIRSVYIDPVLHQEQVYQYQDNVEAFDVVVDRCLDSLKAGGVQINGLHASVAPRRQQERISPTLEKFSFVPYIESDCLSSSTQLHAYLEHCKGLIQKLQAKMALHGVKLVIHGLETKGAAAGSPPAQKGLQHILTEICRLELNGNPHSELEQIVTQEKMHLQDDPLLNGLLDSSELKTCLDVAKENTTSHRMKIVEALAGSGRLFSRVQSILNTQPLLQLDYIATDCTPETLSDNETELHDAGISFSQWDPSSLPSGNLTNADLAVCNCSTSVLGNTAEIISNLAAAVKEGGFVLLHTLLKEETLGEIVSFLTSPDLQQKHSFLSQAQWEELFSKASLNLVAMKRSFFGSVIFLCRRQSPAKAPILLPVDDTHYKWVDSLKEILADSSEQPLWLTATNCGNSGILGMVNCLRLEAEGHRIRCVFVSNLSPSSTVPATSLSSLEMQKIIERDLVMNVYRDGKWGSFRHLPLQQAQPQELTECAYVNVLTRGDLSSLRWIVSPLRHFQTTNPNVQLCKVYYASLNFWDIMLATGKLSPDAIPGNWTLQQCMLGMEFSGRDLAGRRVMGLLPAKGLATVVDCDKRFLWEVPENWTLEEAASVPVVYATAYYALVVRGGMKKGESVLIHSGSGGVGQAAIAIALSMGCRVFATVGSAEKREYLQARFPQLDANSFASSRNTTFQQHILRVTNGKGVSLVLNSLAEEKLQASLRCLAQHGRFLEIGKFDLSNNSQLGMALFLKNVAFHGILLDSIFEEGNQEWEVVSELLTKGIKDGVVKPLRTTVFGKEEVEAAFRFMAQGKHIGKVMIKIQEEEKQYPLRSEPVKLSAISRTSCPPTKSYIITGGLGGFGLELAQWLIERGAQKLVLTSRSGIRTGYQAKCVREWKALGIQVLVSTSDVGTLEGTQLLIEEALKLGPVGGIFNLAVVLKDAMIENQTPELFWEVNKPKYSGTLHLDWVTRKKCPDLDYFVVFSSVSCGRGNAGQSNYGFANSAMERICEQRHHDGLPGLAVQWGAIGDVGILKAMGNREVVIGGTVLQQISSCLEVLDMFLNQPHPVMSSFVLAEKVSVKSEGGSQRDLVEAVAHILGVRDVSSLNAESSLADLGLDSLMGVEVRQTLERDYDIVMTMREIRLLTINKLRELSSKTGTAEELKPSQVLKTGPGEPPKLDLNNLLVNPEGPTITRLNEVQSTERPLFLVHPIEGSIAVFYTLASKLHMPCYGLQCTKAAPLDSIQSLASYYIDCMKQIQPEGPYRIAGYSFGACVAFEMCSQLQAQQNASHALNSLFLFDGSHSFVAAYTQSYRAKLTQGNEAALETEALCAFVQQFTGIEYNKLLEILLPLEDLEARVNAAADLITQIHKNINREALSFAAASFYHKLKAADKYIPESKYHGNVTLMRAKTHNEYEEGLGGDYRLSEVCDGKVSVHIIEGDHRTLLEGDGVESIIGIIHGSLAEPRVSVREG
Experimental: (§1) The FAS employed in this study was sourced from chicken liver, given that the amino acid sequence of chicken FAS shares 63% identity with its human counterpart. The chickens were purchased from Huadu Broiler Corporation, Beijing, China. The purification, storage, and application of the chicken liver FAS were conducted following established procedures. Animal procedures adhered to the Guidelines for the Care and Use of Laboratory Animals as set forth by the Beijing Association for Laboratory Animal Science. […] Concentrations of the enzyme and substrates were determined through absorption measurements, with extinction coefficients being utilized as previously outlined.
(§2) The overall reaction of FAS and the β-ketoacyl reduction facilitated by KR (a functional domain of FAS) were assessed using an Amersham Pharmacia Ultrospec 4300 pro UV-Vis spectrophotometer (GE Healthcare China Company, Beijing, China) at 37 °C by monitoring the decrease of NADPH at 340 nm. The overall reaction mixture comprised potassium phosphate buffer (100 mM, pH 7.0), ethylenediaminetetraacetic acid (EDTA) (1 mM), 1,4-dithiothreitol (DTT) (1 mM), acetyl-CoA (6 µM), malonyl-CoA (12 µM), NADPH (37.5 µM), and chicken liver FAS (10 µg), with a total volume of 2.0 mL. For the KR reaction, the mixture included ethyl acetoacetate (40 mM), NADPH (35 µM), 1 mM of EDTA, and the enzyme (15 µg) in 100 mM of phosphate buffer at pH 7.0, with a total volume of 2.0 mL [41].
(§3) The extent of inhibition was quantified by determining the IC50 value through a plot of residual activity against varying inhibitor concentrations.

[2] = molecular target: T2, KR (a functional domain of FAS) (Gallus gallus, UniProt P12276); assay: KR reaction of FAS, fast-binding inhibition (ethyl acetoacetate, NADPH); format: biochemical, chicken
T2 construct: The purification, storage, and application of the chicken liver FAS were conducted following established procedures; from tissue; host or cells: chicken liver (chickens from Huadu Broiler Corporation, Beijing)
T2 sequence (P12276 whole entry, the tested form may be a part): as the sequence (P12276 whole entry) above
Experimental: as §1
as §2, with “For the KR reaction, the mixture included ethyl acetoacetate (40 mM), NADPH (35 µM), 1 mM of EDTA, and the enzyme (15 µg) in 100 mM of phosphate buffer at pH 7.0, with a total volume of 2.0 mL [41].” left out
as §3

[3] = molecular target: T1, chicken liver FAS; assay: Enzyme kinetics study, FAS overall reaction (double reciprocal plots); format: biochemical; details: LR 0-15.0 μg/mL
Experimental: as §2
(§4) Double reciprocal plots were generated for each inhibitor concentration to determine the competitive relationship between the variable substrate and inhibitor concentrations. This study focused on examining fast-binding inhibition.

[4] = molecular target: T2, KR (a functional domain of FAS); assay: Enzyme kinetics study, KR reaction of FAS (double reciprocal plots); format: biochemical, chicken; details: NADPH variable substrate, LR 0-15.0 μg/mL
Experimental: as §2, §4

[5] = test system: LoVo cells; assay: Cell viability, MTT assay; format: cell-based, human; details: 24 h
Excerpt: (§5) The human colon cancer cell lines CaCo2, LoVo, and SW620 were purchased from the Type Culture Collection of the Chinese Academy of Sciences (Shanghai, China). The CaCo2 cell line, originating from a human colon adenocarcinoma isolated in the 1970s, undergoes processes of proliferation, confluency, and differentiation during growth. […] LoVo, another cell line isolated in 1971 from the large intestine of a person with grade IV Dukes C colorectal cancer, offers applications in cancer, toxicology, and immuno-oncology research. SW620 cells, obtained from the large intestine of a person Dukes C colorectal cancer patient, are valuable resources for cancer and toxicology investigations. Cells were grown in Dulbecco’s Modified Eagle Medium (DMEM) supplemented with 10% fetal bovine serum (FBS) and were maintained in a humidified atmosphere containing 95% air and 5% CO2 at 37 °C.
(§6) LR was examined to evaluate its inhibition on the proliferation of CaCo2, LoVo, and SW620 cells. CaCo2, LoVo, and SW620 cells were grown in 96-well plates until reaching confluence and were treated with either DMSO (1:1000) or increasing doses of LR for 24 h at 37 °C. Following this, the cell medium was replaced with fresh medium containing 500 µg/mL MTT. After a 4-h incubation at 37 °C, the plates were decanted, and 150 µL of DMSO was added to dissolve the formazan crystals. Subsequently, the plate was analyzed using a microplate spectrophotometer (Multiskan, MK3) (Thermo Fisher Scientific Inc., Waltham, MA, USA) at a wavelength of 492 nm. Each experiment was conducted five times on three separate occasions.

[6] = test system: CaCo2 cells; assay: Cell viability, MTT assay; format: cell-based, human
Excerpt: as §5, §6

[7] = test system: SW620 cells; assay: Cell viability, MTT assay; format: cell-based, human
Excerpt: as §5, §6

[8] = molecular target: T3, intracellular FAS activity in LoVo cells (Homo sapiens, UniProt P49327); assay: Intracellular FAS activity assay; format: cell-based
T3 construct: the cells were sonicated at 4 °C and centrifuged at 12,000 rpm for 15 min at 4 °C to obtain particle-free supernatants; endogenous in cells; host or cells: CaCo2, LoVo, SW620
T3 sequence (P49327 whole entry): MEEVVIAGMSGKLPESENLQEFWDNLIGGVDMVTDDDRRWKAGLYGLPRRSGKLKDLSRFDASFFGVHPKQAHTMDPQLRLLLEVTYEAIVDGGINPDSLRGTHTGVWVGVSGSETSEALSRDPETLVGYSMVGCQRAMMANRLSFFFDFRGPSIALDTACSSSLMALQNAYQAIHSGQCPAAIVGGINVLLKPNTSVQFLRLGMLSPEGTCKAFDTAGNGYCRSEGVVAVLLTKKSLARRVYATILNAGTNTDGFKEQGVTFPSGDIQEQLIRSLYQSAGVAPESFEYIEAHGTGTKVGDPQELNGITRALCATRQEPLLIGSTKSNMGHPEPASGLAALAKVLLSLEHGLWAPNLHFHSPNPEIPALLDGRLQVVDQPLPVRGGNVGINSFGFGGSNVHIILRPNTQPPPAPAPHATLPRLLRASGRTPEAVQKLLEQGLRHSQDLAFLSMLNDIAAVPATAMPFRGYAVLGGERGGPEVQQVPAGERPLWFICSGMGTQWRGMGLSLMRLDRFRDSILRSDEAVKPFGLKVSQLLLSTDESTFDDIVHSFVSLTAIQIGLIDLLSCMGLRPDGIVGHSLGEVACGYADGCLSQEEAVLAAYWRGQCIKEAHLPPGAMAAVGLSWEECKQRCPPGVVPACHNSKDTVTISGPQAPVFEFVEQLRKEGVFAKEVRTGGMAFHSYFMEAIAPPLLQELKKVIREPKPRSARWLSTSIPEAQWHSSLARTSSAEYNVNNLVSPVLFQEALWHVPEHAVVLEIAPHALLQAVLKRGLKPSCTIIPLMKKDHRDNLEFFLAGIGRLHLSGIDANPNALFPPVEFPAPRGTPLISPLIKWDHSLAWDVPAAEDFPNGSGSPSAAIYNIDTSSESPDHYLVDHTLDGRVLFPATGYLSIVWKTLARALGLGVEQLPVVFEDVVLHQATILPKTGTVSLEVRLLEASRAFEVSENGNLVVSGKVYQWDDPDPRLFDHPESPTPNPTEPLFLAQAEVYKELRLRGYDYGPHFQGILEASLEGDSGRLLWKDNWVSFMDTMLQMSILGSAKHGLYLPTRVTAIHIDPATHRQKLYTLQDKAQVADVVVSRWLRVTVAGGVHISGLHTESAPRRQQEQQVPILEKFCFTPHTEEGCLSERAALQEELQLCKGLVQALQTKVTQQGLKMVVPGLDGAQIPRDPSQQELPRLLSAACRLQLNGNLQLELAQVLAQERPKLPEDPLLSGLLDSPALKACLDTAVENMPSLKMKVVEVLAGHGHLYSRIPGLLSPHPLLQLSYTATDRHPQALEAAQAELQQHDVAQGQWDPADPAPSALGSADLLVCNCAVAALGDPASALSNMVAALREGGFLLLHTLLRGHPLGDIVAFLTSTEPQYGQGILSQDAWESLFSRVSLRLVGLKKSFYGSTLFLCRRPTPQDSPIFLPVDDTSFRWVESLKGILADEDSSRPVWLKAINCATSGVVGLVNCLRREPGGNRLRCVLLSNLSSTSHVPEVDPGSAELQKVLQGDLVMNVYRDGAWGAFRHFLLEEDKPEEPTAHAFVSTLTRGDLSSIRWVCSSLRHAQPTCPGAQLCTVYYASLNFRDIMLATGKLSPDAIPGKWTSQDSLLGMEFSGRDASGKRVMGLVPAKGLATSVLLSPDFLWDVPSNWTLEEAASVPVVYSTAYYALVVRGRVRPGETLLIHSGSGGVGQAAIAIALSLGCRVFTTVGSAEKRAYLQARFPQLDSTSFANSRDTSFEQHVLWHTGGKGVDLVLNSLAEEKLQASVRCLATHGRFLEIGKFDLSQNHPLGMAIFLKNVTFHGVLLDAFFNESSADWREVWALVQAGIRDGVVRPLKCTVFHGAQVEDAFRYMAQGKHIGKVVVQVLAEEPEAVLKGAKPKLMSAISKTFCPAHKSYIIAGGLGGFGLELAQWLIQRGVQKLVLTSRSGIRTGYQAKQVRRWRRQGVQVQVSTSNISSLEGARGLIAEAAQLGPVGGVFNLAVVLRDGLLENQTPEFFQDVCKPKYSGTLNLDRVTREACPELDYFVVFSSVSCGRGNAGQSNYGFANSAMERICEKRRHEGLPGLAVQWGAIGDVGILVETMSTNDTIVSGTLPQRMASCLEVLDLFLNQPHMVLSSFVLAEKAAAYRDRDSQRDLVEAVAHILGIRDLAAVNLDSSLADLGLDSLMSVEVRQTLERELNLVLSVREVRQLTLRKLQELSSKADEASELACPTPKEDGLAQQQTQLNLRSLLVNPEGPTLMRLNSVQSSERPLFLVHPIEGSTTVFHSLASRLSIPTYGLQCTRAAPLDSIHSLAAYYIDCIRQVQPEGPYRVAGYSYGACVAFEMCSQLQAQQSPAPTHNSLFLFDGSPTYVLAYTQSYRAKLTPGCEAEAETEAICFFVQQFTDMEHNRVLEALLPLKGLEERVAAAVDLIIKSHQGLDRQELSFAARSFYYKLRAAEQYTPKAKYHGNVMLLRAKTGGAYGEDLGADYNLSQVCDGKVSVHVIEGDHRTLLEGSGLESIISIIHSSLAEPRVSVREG
Excerpt: as §5
(§7) Cells were exposed to LR for 24 h, followed by collection through trypsinization, centrifugation, triple washing, and resuspension in cold PBS. Subsequently, the cells were sonicated at 4 °C and centrifuged at 12,000 rpm for 15 min at 4 °C to obtain particle-free supernatants. The intracellular FAS activity was assessed spectrophotometrically by measuring the reduction in absorbance at 340 nm due to the oxidation of NADPH. A total volume of 500 µL of buffer comprising 50 µL of particle-free supernatant, 25 mM of KH2PO4-K2HPO4 buffer, 0.25 mM of EDTA, 0.25 mM of dithiothreitol, 30 µM of acetyl-CoA, and 350 µM of NADPH (pH 7.0) was monitored at 340 nm for 1 min to establish baseline NADPH oxidation. Following the addition of […] of malonyl-CoA, the reaction was further monitored for 1 min to determine FAS-dependent NADPH oxidation.

[9] = molecular target: T4, intracellular FAS activity in SW620 cells (Homo sapiens, UniProt P49327); assay: Intracellular FAS activity assay; format: cell-based
T4 construct: the cells were sonicated at 4 °C and centrifuged at 12,000 rpm for 15 min at 4 °C to obtain particle-free supernatants; endogenous in cells; host or cells: CaCo2, LoVo, SW620
T4 sequence (P49327 whole entry): as above
Excerpt: as §5, §7

[10] = molecular target: T5, intracellular FAS activity in CaCo2 cells (Homo sapiens, UniProt P49327); assay: Intracellular FAS activity assay; format: cell-based; details: LR 60 µg/mL, 24 h
T5 construct: the cells were sonicated at 4 °C and centrifuged at 12,000 rpm for 15 min at 4 °C to obtain particle-free supernatants; endogenous in cells; host or cells: CaCo2, LoVo, SW620
T5 sequence (P49327 whole entry): as above
Excerpt: as §5, §7

[11] = fast-binding inhibition, 37 °C, mean ± SD, three experiments
[12] = fast-binding inhibition, 37 °C, mean ± SD, three experiments, read-out: FAS Inhibitory Activity IC50 (converted)
[13] = LR 25 μg/mL + palmitic acid 100 μM, 24 h, versus LR alone

## CC1OC(OC2Cc3c(O)cc(O)cc3OC2c2ccc(O)cc2)C(O)C(O)C1O (stereo not shown) [AR, afzelechin-3-rhamnopyranoside]
[1]; [11]
  FAS Inhibitory Activity IC50: did not show a significant inhibitory effect
[1]; [12]
  IC50: > 476 µM

## COc1cc(C2c3c(cc(OC)c(O)c3OC)CC(CO)C2COC2OC(C)C(O)C(O)C2O)cc(OC)c1O (stereo not drawn) [LR, lyoniresinol-3α-O-β-rhamnopyranoside]
[2]
  IC50: 56.3 µM
[1]; [12]
  IC50: 35.5 µM
[1]; same value as 20.1 µg/mL given in molar unit, read-out: FAS inhibition IC50
  IC50: 35.5 µM
[3]; acetyl-CoA variable substrate
  Type of inhibition with respect to acetyl-CoA: competitively
[3]; malonyl-CoA variable substrate
  Type of inhibition with respect to malonyl-CoA: noncompetitively
[4]
  Type of inhibition with respect to NADPH: competitively
[5]; Homo sapiens, MTT
  IC50: 24.9 µg/mL (≈ 43.9 µM)
[5]; LR 25 μg/mL + palmitic acid 100 μM, versus LR alone
  Cell viability with exogenous palmitic acid (rescue): restored significantly
[6]; Homo sapiens, Caco-2, 24 h, MTT
  IC50: 28.4 µg/mL (≈ 50.1 µM)
[6]; [13]
  Cell viability with exogenous palmitic acid (rescue): restored significantly
[7]; Homo sapiens, SW-620, 24 h, MTT
  IC50: 22.1 µg/mL (≈ 39 µM)
[7]; [13]
  Cell viability with exogenous palmitic acid (rescue): restored significantly
[8]; 24 h treatment
  IC50: 45 µM
[8]; LR 60 µg/mL, 24 h
  Relative FAS activity: under 20%
[9]; 24 h treatment
  IC50: 38.5 µM
[9]; LR 60 µg/mL, 24 h
  Relative FAS activity: under 20%
[10]
  Relative FAS activity: under 20%

## COc1cc(C2c3c(cc(OC)c(O)c3OC)CC(CO)C2COC2OCC(O)C(O)C2O)cc(OC)c1O (stereo not drawn) [LA, lyoniresinol-3α-O-β-arabinopyranoside]
[1]; [11]
  FAS Inhibitory Activity IC50: did not show a significant inhibitory effect
[1]; [12]
  IC50: > 362 µM

## O=C(O[C@@H]1Cc2c(O)cc(O)cc2O[C@@H]1c1cc(O)c(O)c(O)c1)c1cc(O)c(O)c(O)c1 [EGCG, epigallocatechin gallate, reference compound]
[1]; [11]
  FAS Inhibitory Activity IC50: 24.8 ± 2.2 µg/mL

Reference: publication PMC10934235, “Inhibitory Effects of the Polyphenols from the Root of Rhizophora apiculata Blume on Fatty Acid Synthase Activity and Human Colon Cancer Cells” (Molecules, 2024)
